In patent publication US20150086647A1, “PEROXYGEN RELEASE COMPOSITIONS AND METHOD FOR PRODUCING THEM” (CREACHEM SA, priority 2012, published 2015):

Experiment: Stability in the presence of ferric EDTA (Fe-catalyzed hydrogen peroxide decomposition)
Assay type: physicochemical
Details: with ferric EDTA; for hydrogen peroxide concentration: diluted with tap water
Protocol: Approximately 250 μL of a 3% solution of ferric EDTA (ethylenediaminetetracetic acid), at pH 7, was added to 3.5 grams of the composition obtained from EXAMPLE I.
The same amount of ferric EDTA was added to 3.5 grams of a 27.5% wt H2O2 solution. Both the 3.5 grams of the composition according to EXAMPLE I and the 3.5 grams H2O2 solution, both containing the ferric EDTA, were diluted with a quantity of tap water until the water contained 50 ppm of H2O2, determined with colorimetric reagent strips (Merck).
The following table indicates the evolution of the hydrogen peroxide concentration (ppm) in both samples.

gas bubbles indicating Fe-catalyzed hydrogen peroxide decomposition (diluted to 50 ppm H2O2): appeared almost instantly | hydrogen peroxide concentration (0 h): 50 ppm | hydrogen peroxide concentration (4 h): 20 ppm | hydrogen peroxide concentration (18 h): 15 ppm
Substance: H2O2 [Diluted H2O2]
